Patent US20240368121A1, “ESTROGEN RECEPTOR DEGRADERS, PHARMACEUTICAL COMPOSITIONS THEREOF, AND THEIR THERAPEUTIC APPLICATIONS” (BioTheryX, Inc., priority 2021, published 2024)

Tests used:
ERα = target: T1, ERα (Homo sapiens, UniProt P03372); test: Protein degradation assay: ERα in MCF-7 cells via western blot; type: cell-based; conditions: 6 h; for ERα Protein Degradation 1 nM: 1 nM compound; for ERα Protein Degradation 10 nM: 10 nM compound; for ERα Protein Degradation 100 nM: 100 nM compound
T1 construct: degrading an ERα in MCF-7 cells via a western blot; endogenous in cells; host or cells: MCF-7
T1 sequence (P03372 1-595): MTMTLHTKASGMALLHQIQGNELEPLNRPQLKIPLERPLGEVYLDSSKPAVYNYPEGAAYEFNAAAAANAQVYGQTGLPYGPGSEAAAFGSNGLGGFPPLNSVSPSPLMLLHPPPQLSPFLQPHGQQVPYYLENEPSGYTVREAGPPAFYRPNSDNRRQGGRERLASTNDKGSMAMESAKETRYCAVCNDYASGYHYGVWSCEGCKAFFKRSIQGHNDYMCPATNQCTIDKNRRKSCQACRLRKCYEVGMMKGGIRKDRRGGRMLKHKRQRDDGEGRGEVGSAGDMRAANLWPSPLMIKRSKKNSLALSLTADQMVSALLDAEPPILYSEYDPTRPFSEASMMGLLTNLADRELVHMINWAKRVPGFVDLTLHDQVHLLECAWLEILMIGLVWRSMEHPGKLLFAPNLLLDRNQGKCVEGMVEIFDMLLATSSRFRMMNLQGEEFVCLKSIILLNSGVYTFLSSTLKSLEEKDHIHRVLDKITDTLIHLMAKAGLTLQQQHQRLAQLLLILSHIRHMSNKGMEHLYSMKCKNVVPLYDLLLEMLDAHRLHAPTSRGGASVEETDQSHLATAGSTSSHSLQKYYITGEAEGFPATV
Description: A compound provided herein was assessed for its activity in degrading an ERα in MCF-7 cells via a western blot. The MCF7 cells were cultured at 37° C. in a humidified 5% C02 environment in MEM supplemented with 10% FBS with insulin. The cells were seeded in 12-well plates at a density of 300,000 cells per well in maintenance media. Cells were treated with the compound at predetermined concentrations (e.g., 1 nM, 10 nM, 100 nM, and 1 μM) for 6 h. The cells were then washed in PBS and the whole cells were lysed in a cell lysis buffer and incubated for 15 minutes on ice. Cell debris was removed by high-speed centrifugation and the cleared whole cell lysates were prepared for further analysis by a western blot. The whole cell protein extracts were separated on SDS-polyacrylamide gels, transferred to nitrocellulose membranes, and probed with primary antibodies, including anti-ERα antibody and GAPDH antibody for loading control. The membranes were subsequently washed and probed with secondary antibodies for chemiluminescence, followed by imaging on a BIORAD CHEMIDOC Imaging System. The results are summarized in Table 2, where “A” represents a percentage degradation value of no less than 50%; “B” represents a percentage degradation value of less than 50% and no less than 25%; “C” represents a percentage degradation value of less than 25% and no less than 10%; and “D” represents a percentage degradation value of less than 10%.

MCF7 cells = test: Cell viability assay ([…]-GLO, 6-day treatment); type: cell-based; conditions: Homo sapiens, MCF7, 144 h; MCF-7 cells, 6 days, CTG; read-out: Inhibition of Cancerous Cells IC50 MCF-7
Description: A compound provided herein was evaluated for its anticancer activity in MCF7 and T47D cells. MCF7 and T47D cells were cultured at 37° C. in a humidified 5% C02 environment in MEM or RPMI, supplemented with 10% FBS with insulin, respectively. The cells were plated in 384-well microplates at a density of 1,000 cells per well in their respective maintenance media. The cells were treated with the compound by a 10-point dose response curve for 6 days, during which, the medium and compound were refreshed once. After the 6-day treatment, the cell viability was assessed using […]-GLO (CTG) reagent. Luminescence was measured with a microplate reader.

| IC50 (MCF7 cells) | SMILES | ERα Protein Degradation 1 nM (ERα) | ERα Protein Degradation 10 nM (ERα) | ERα Protein Degradation 100 nM (ERα) |
| --- | --- | --- | --- | --- |
| 1.7 nM | Cc1c(-c2ccc(O)cc2)n(Cc2ccc(OCCCCN3CCN(C(=O)COc4cccc5c(N6CCC(=O)NC6=O)nn(C)c45)CC3)cc2)c2ccc(O)cc12 [Compound D23, 1-(7-(2-(4-(4-(4-((5-hydroxy-2-(4-hydroxyphenyl)-3-methyl-1H-indol-1-yl)-methyl)phenoxy)butyl)piperazin-1-yl)-2-oxoethoxy)-1-methyl-1H-indazol-3-yl)dihydro-pyrimidine-2,4(1H,3H)-dione] | C (a percentage degradation value of less than 25% and no less than 10%) | C (a percentage degradation value of less than 25% and no less than 10%) | D (a percentage degradation value of less than 10%) |
| 1.7 nM | Cc1c(-c2ccc(O)cc2)n(Cc2ccc(OCCCCN3CCN(C(=O)COc4ccc(C5CCC(=O)NC5=O)cc4)CC3)cc2)c2ccc(O)cc12 (stereo not shown) [Compound E24, 3-(4-(2-(4-(4-(4-((5-hydroxy-2-(4-hydroxyphenyl)-3-methyl-1H-indol-1-yl)-methyl)phenoxy)butyl)piperazin-1-yl)-2-oxoethoxy)phenyl)piperidine-2,6-dione] | D (a percentage degradation value of less than 10%) | D (a percentage degradation value of less than 10%) | D (a percentage degradation value of less than 10%) |
| 1.2 nM | Cn1nc(C2CCC(=O)NC2=O)c2ccc(N3CCN(CC4CCN(c5ccc([C@@H]6c7ccc(O)cc7CC[C@@H]6c6ccccc6)cc5)CC4)CC3)cc21 (stereo partly drawn) [Compound B25, 3-(6-(4-((1-(4-((1R,2S)-6-Hydroxy-2-phenyl-1,2,3,4-tetrahydronaphthalen-1-yl)-phenyl)piperidin-4-yl)methyl)piperazin-1-yl)-1-methyl-1H-indazol-3-yl)piperidine-2,6-dione] | C (a percentage degradation value of less than 25% and no less than 10%) | B (a percentage degradation value of less than 50% and no less than 25%) | D (a percentage degradation value of less than 10%) |
| 0.33 nM | Cc1c(-c2ccc(O)cc2)n(Cc2ccc(OCCCCN3CCN(C(=O)COc4ccc5c(C6CCC(=O)NC6=O)nn(C)c5c4)CC3)cc2)c2ccc(O)cc12 (stereo not shown) [Compound E14, 3-(6-(2-(4-(4-(4-((5-Hydroxy-2-(4-hydroxyphenyl)-3-methyl-1H-indol-1-yl)-methyl)phenoxy)butyl)piperazin-1-yl)-2-oxoethoxy)-1-methyl-1H-indazol-3-yl)piperidine-2,6-dione] | B (a percentage degradation value of less than 50% and no less than 25%) | B (a percentage degradation value of less than 50% and no less than 25%) | D (a percentage degradation value of less than 10%) |
| 66 nM | Cn1nc(C2CCC(=O)NC2=O)c2ccc(OCC(=O)N3CCN(CCCCOc4ccc([C@H]5c6ccc(O)cc6CC[C@H]5c5ccccc5)cc4)CC3)cc21 (stereo partly drawn) [Compound B24, 3-(6-(2-(4-(4-(4-((1S,2R)-6-Hydroxy-2-phenyl-1,2,3,4-tetrahydronaphthalen-1-yl)phenoxy)butyl)piperazin-1-yl)-2-oxoethoxy)-1-methyl-1H-indazol-3-yl)piperidine-2,6-dione] | C (a percentage degradation value of less than 25% and no less than 10%) | C (a percentage degradation value of less than 25% and no less than 10%) | C (a percentage degradation value of less than 25% and no less than 10%) |
| 1160 nM | O=C1CCC(N2Cc3c(csc3COc3ccc(CNCCCCCOc4ccc([C@@H]5c6ccc(O)cc6CC[C@@H]5c5ccccc5)cc4)cc3)C2=O)C(=O)N1 (stereo in doubt) [Compound A17, 3-(1-((4-(((5-(4-((1R,2S)-6-Hydroxy-2-phenyl-1,2,3,4-tetrahydronaphthalen-1-yl)phenoxy)pentyl)amino)methyl)phenoxy)methyl)-4-oxo-4H-thieno[3,4-c]pyrrol-5(6H)-yl)piperidine-2,6-dione] | B (a percentage degradation value of less than 50% and no less than 25%) | C (a percentage degradation value of less than 25% and no less than 10%) | D (a percentage degradation value of less than 10%) |
| 0.99 nM | Cn1nc(C2CCC(=O)NC2=O)c2ccc(OCC(=O)N3CCN(CC4CCN(c5ccc([C@@H]6c7ccc(O)cc7CC[C@@H]6c6ccccc6)cc5)CC4)CC3)cc21 (stereo partly drawn) [Compound B27, 3-(6-(2-(4-((1-(4-((1R,2S)-6-Hydroxy-2-phenyl-1,2,3,4-tetrahydronaphthalen-1-yl)phenyl)piperidin-4-yl)methyl)piperazin-1-yl)-2-oxoethoxy)-1-methyl-1H-indazol-3-yl)-piperidine-2,6-dione] | D (a percentage degradation value of less than 10%) | B (a percentage degradation value of less than 50% and no less than 25%) | D (a percentage degradation value of less than 10%) |
| 107 nM | O=C1CCC(c2ccc(OCC(=O)N3CCN(CCCCOc4ccc([C@H]5c6ccc(O)cc6CC[C@H]5c5ccccc5)cc4)CC3)cc2)C(=O)N1 (stereo partly drawn) [Compound B44, 3-(4-(2-(4-(4-(4-((1S,2R)-6-Hydroxy-2-phenyl-1,2,3,4-tetrahydronaphthalen-1-yl)phenoxy)butyl)piperazin-1-yl)-2-oxoethoxy)phenyl)piperidine-2,6-dione] | B (a percentage degradation value of less than 50% and no less than 25%) | C (a percentage degradation value of less than 25% and no less than 10%) | C (a percentage degradation value of less than 25% and no less than 10%) |
| 3.8 nM | Cc1c(-c2ccc(O)cc2)n(Cc2ccc(OCCCCN3CCN(C(=O)COc4cccc(N5CCC(=O)NC5=O)c4)CC3)cc2)c2ccc(O)cc12 [Compound E26, 1-(3-(2-(4-(4-(4-((5-Hydroxy-2-(4-hydroxyphenyl)-3-methyl-1H-indol-1-yl)-methyl)phenoxy)butyl)piperazin-1-yl)-2-oxoethoxy)phenyl)dihydropyrimidine-2,4(1H,3H)-dione] | D (a percentage degradation value of less than 10%) | D (a percentage degradation value of less than 10%) | D (a percentage degradation value of less than 10%) |
| 1.4 nM | O=C1CCC(N2Cc3c(csc3COc3ccc(CNCCCCCOc4ccc([C@@H]5c6ccc(O)cc6CC[C@@H]5c5ccccc5)cc4)cc3)C2=O)C(=O)N1 (stereo partly drawn) [Compound A9, 3-(1-((4-(((5-(4-((1R,2S)-6-hydroxy-2-phenyl-1,2,3,4-tetrahydronaphthalen-1-yl)phenoxy)pentyl)amino)methyl)phenoxy)methyl)-4-oxo-4H-thieno[3,4-c]pyrrol-5(6H)-yl)piperidine-2,6-dione] | B (a percentage degradation value of less than 50% and no less than 25%) | B (a percentage degradation value of less than 50% and no less than 25%) | B (a percentage degradation value of less than 50% and no less than 25%) |
